In brackets after ≈: the same amount, converted by molar mass. Like-named read-outs stand apart in the source and are kept apart here.
How the values were obtained:
[1] = test system: Eubacterium limosum JCM 6421; assay: Assimilation by intestinal microorganism; type: cell-based; conditions: 0.5 w/v % saccharide, PYF broth, 37° C., 96 hours
Experimental: (§1) The resultant broth was diluted 5-fold, and the turbidity of the diluted solution was determined at 750 nm in 1-cm cell cuvette. The growth of the intestinal microorganisms and the assimilability of lactoneotrehalose were both evaluated with the turbidity. As control, glucose and lactose were used in place of lactoneotrehalose.

[2] = test system: Bifidobacterium animalis JCM 1190; assay: Assimilation by intestinal microorganism; type: cell-based; conditions: 0.5 w/v % saccharide, PYF broth, 37° C., 96 hours
Experimental: as §1

[3] = test system: Bifidobacterium breve JCM 1192; assay: Assimilation by intestinal microorganism; type: cell-based; conditions: 0.5 w/v % saccharide, PYF broth, 37° C., 96 hours
Experimental: as §1

[4] = test system: Peptostreptococcus prevotii ATCC 9321; assay: Assimilation by intestinal microorganism; type: cell-based; conditions: 0.5 w/v % saccharide, PYF broth, 37° C., 96 hours
Experimental: as §1

[5] = test system: Bifidobacterium infantis JCM 1222; assay: Assimilation by intestinal microorganism; type: cell-based; conditions: 0.5 w/v % saccharide, PYF broth, 37° C., 96 hours
Experimental: as §1

[6] = test system: Lactobacillus plantarum IFO 3070; assay: Assimilation by intestinal microorganism; type: cell-based; conditions: 0.5 w/v % saccharide, PYF broth, 37° C., 96 hours
Experimental: as §1

[7] = test system: Eubacterium aerofaciens ATCC 25986; assay: Assimilation by intestinal microorganism; type: cell-based; conditions: 0.5 w/v % saccharide, PYF broth, 37° C., 96 hours
Experimental: as §1

[8] = test system: Lactobacillus acidophilus JCM 1132; assay: Assimilation by intestinal microorganism; type: cell-based; conditions: 0.5 w/v % saccharide, PYF broth, 37° C., 96 hours
Experimental: as §1

[9] = test system: Escherichia coli IFO 3301; assay: Assimilation by intestinal microorganism; type: cell-based; conditions: 0.5 w/v % saccharide, PYF broth, 37° C., 96 hours
Experimental: as §1

[10] = test system: Streptococcus faecalis IAM 10065; assay: Assimilation by intestinal microorganism; type: cell-based; conditions: 0.5 w/v % saccharide, PYF broth, 37° C., 96 hours
Experimental: as §1

[11] = test system: Bifidobacterium longum JCM 1217; assay: Assimilation by intestinal microorganism; type: cell-based; conditions: 0.5 w/v % saccharide, PYF broth, 37° C., 96 hours
Experimental: as §1

[12] = test system: Bifidobacterium adolescentis JCM 1275; assay: Assimilation by intestinal microorganism; type: cell-based; conditions: 0.5 w/v % saccharide, PYF broth, 37° C., 96 hours
Experimental: as §1

[13] = test system: Bacteroides distasonis JCM 5825; assay: Assimilation by intestinal microorganism; type: cell-based; conditions: 0.5 w/v % saccharide, PYF broth, 37° C., 96 hours
Experimental: as §1

[14] = test system: Clostridium sporogenes JCM 1416; assay: Assimilation by intestinal microorganism; type: cell-based; conditions: 0.5 w/v % saccharide, PYF broth, 37° C., 96 hours
Experimental: as §1

[15] = test system: mice; assay: Acute toxicity test, oral
From the text: A crystalline lactoneotrehalose specimen, prepared by the method in Experiment 1, was orally administered to 7 week-old dd mice for acute toxicity test.

[16] = Digestion test in vitro, hydrolysis rate; type: in vitro ADME; conditions: salivary amylase, read-out: hydrolysis rate (the ratio of reducing sugars against total sugars)
Experimental: (§2) In accordance with the method reported in Okada et al., Journal of Japanese Society of Nutrition and Food Science, Vol.43, No.1, pp.23-29 (1990), a crystalline lactoneotrehalose specimen prepared by the method in Experiment 1 was tested for its digestibility in vitro, and the digestibility was evaluated based on the hydrolysis rate (the ratio of reducing sugars against total sugars).

[17] = Acidity of aqueous solution; type: physicochemical
[18] = Solubility; type: physicochemical
[19] = Digestion test in vitro, hydrolysis rate; type: in vitro ADME; conditions: gastric juice, read-out: hydrolysis rate (the ratio of reducing sugars against total sugars)
Experimental: as §2

[20] = Heat of dissolution; type: physicochemical
[21] = test system: microorganisms of the genus Bifidobacterium; assay: Assimilation by intestinal microorganism, overall finding; type: cell-based; conditions: conclusion from Table 3
Experimental: as §1

[22] = test system: Enzyme of small intestinal mucous membrane; assay: Digestion test in vitro, hydrolysis rate; type: in vitro ADME; conditions: conclusion from Table 1
Experimental: as §2

[23] = Digestion test in vitro, hydrolysis rate; type: in vitro ADME; conditions: small intestinal mucosa enzyme; in vitro, enzyme of small intestinal mucous membrane; read-out: hydrolysis rate (the ratio of reducing sugars against total sugars)
Experimental: as §2

[24] = Digestion test in vitro, hydrolysis rate; type: in vitro ADME; conditions: amylopsin, read-out: hydrolysis rate (the ratio of reducing sugars against total sugars)
Experimental: as §2

[25] = Coloring reaction; type: physicochemical
[26] = Hygroscopicity, deliquescence and moisture content; type: physicochemical
From the text: (9) Physical properties and color Colorless and transparent crystal having a true specific gravity of 1.59.

O=C[C@H](O)[C@@H](O)[C@H](O)[C@H](O)CO [Glucose, glucose]
Judgement of turbidity (A750 × 5) [1]: ± (0.1 or higher but less than 0.15)
Judgement of turbidity (A750 × 5) [2]: ++ (0.2 or higher but less than 0.3)
Judgement of turbidity (A750 × 5) [3]: ++ (0.2 or higher but less than 0.3)
Judgement of turbidity (A750 × 5) [4]: - (less than 0.1)
Judgement of turbidity (A750 × 5) [5]: ++ (0.2 or higher but less than 0.3)
Judgement of turbidity (A750 × 5) [6]: + (0.15 or higher but less than 0.2)
Judgement of turbidity (A750 × 5) [7]: +++ (0.3 or higher)
Judgement of turbidity (A750 × 5) [8]: + (0.15 or higher but less than 0.2)
Judgement of turbidity (A750 × 5) [9]: ++ (0.2 or higher but less than 0.3)
Judgement of turbidity (A750 × 5) [10]: ++ (0.2 or higher but less than 0.3)
Judgement of turbidity (A750 × 5) [11]: ++ (0.2 or higher but less than 0.3)
Judgement of turbidity (A750 × 5) [12]: ++ (0.2 or higher but less than 0.3)
Judgement of turbidity (A750 × 5) [13]: ± (0.1 or higher but less than 0.15)

OC[C@H]1O[C@@H](O[C@H]2[C@H](O)[C@@H](O)C(O)O[C@@H]2CO)[C@H](O)[C@@H](O)[C@H]1O (stereo partly drawn) [Lactose, O-β-D-galactopyranosyl-(1→4)-D-glucose]
Judgement of turbidity (A750 × 5) [1]: - (less than 0.1)
Judgement of turbidity (A750 × 5) [14]: - (less than 0.1)
Judgement of turbidity (A750 × 5) [2]: ++ (0.2 or higher but less than 0.3)
Judgement of turbidity (A750 × 5) [3]: +++ (0.3 or higher)
Judgement of turbidity (A750 × 5) [4]: - (less than 0.1)
Judgement of turbidity (A750 × 5) [5]: ++ (0.2 or higher but less than 0.3)
Judgement of turbidity (A750 × 5) [6]: + (0.15 or higher but less than 0.2)
Judgement of turbidity (A750 × 5) [7]: ++ (0.2 or higher but less than 0.3)
Judgement of turbidity (A750 × 5) [8]: + (0.15 or higher but less than 0.2)
Judgement of turbidity (A750 × 5) [9]: ± (0.1 or higher but less than 0.15)
Judgement of turbidity (A750 × 5) [10]: + (0.15 or higher but less than 0.2)
Judgement of turbidity (A750 × 5) [11]: ++ (0.2 or higher but less than 0.3)
Judgement of turbidity (A750 × 5) [12]: ++ (0.2 or higher but less than 0.3)
Judgement of turbidity (A750 × 5) [13]: ± (0.1 or higher but less than 0.15)

OC[C@H]1O[C@@H](O[C@H]2[C@H](O)[C@@H](O)[C@H](O[C@H]3O[C@H](CO)[C@@H](O)[C@H](O)[C@H]3O)O[C@@H]2CO)[C@H](O)[C@@H](O)[C@H]1O [lactoneotrehalose, O-β-D-galactopyranosyl-(1→4)-O-β-D-glucopyranosyl α-D-glucopyranoside]
mortality ([15]; 7 week-old dd mice, up to 5 g): no mouse died
toxicity ([15]; dd mice, conclusion): extremely low in toxicity
Judgement of turbidity (A750 × 5) [1]: - (less than 0.1)
Judgement of turbidity (A750 × 5) [14]: - (less than 0.1)
Judgement of turbidity (A750 × 5) [2]: ++ (0.2 or higher but less than 0.3)
Judgement of turbidity (A750 × 5) [3]: ++ (0.2 or higher but less than 0.3)
Judgement of turbidity (A750 × 5) [4]: - (less than 0.1)
Judgement of turbidity (A750 × 5) [5]: ++ (0.2 or higher but less than 0.3)
Judgement of turbidity (A750 × 5) [6]: - (less than 0.1)
Judgement of turbidity (A750 × 5) [7]: - (less than 0.1)
Judgement of turbidity (A750 × 5) [8]: ± (0.1 or higher but less than 0.15)
Judgement of turbidity (A750 × 5) [9]: - (less than 0.1)
Judgement of turbidity (A750 × 5) [10]: - (less than 0.1)
Judgement of turbidity (A750 × 5) [11]: ++ (0.2 or higher but less than 0.3)
Judgement of turbidity (A750 × 5) [12]: ++ (0.2 or higher but less than 0.3)
Judgement of turbidity (A750 × 5) [13]: - (less than 0.1)
metabolised [16]: 0%
acidity of aqueous solution of the crystal [17]: neutral or slight acidity
Solubility in solvents ([18]; 0.1N hydrochloric acid): Readily soluble
Solubility in solvents ([18]; 0.1N sodium hydroxide): Readily soluble
Solubility in solvents ([18]; chloroform): insoluble
Solubility in solvents ([18]; ethanol): scarcely soluble
Solubility in solvents ([18]; ethyl acetate): insoluble
Solubility in solvents ([18]; methanol): scarcely soluble
Solubility in solvents ([18]; water): Readily soluble
solubility ([18]; water, 25° C.): 217 mg/mL (≈ 430 mM)
metabolised [19]: 0%
Heat of dissolution [20]: 20.0 cal/g
selective utilization by genus Bifidobacterium [21]: selectively utilized at a relatively high-level by microorganisms of the genus Bifidobacterium
main site of hydrolysis [22]: mainly hydrolyzed by the enzyme from intestinal mucous membrane
metabolised [23]: 60.2%
metabolised [24]: 0%
Fehling's reaction [25]: Negative
iodine coloration reaction [25]: Negative
hygroscopicity and deliquescence [26]: Free of hygroscopicity and deliquescence
moisture content of crystals ([26]; Karl Fischer's method, predried in vacuo at 60° C. for 16 hours): less than 3.0%

Source: patent US5218096A, “Lactoneotrehalose, and its preparation and uses” (Kabushiki Kaisha Hayashibara Seibutsu Kagaku Kenkyujo, priority 1990, dated 1993)
